# Results: patent publication US7267815B2, “Methods and reagents for the enhancement of virus transduction in the bladder epithelium” (priority 2002, dated 2007)
# Experiments:
# adenovirus (Ad-LacZ) = assay: Study #5: adenovirus stability after incubation with 0.1% SDS or 0.1% DDM (plaque assay); assay type: physicochemical; conditions: 0.1% solution, one hour at 25° C. or 37° C.
# Protocol: In this study, adenovirus (Ad-LacZ) preparations (1.0×10^12 vp/ml) were mixed with solutions of SDS or DDM to obtain a mixture of adenovirus and each of these surfactants. […] These samples were incubated at 25° C. or 37° C. for one hour before freezing. They were sent to assay services for plaque assay analysis.
# adenovirus = assay: Study #3: compatibility of adenovirus with selected enhancers (plaque assay); assay type: physicochemical
# Protocol: For this study, each sample was incubated at 37° C. or 25° C. before the plaque assay started.
# bladder epithelium [1] = assay: Effect of chemical agent pretreatment on adenovirus-mediated gene transfer and expression (Ad-βgal, X-gal staining); assay type: in vivo, mouse (BALB/c)
# Protocol: 152 female BALB/c mice were used this study.
# The route of administration of the chemical agent and virus was intravesical.
# 3. Based on the reagent being tested, bladder pretreatment was performed as follows:
# Poloxomer 407 procedure: Washed 2 times with 100 μl each. Retained the 3rd wash for 5 min and gave one additional wash. Performed 3 times PBS wash prior to virus instillation.
# Poloxomer 188 procedure: Washed 2 times with 100 μl each. Retained the 3rd wash for 5 minutes and gave one additional wash. Performed 3 times PBS wash prior to virus instillation.
# Lipofectamine 2000 procedure: Added 5 μl of stock Lipofectamine (1 mg/ml) to 195 μl of PBS-10% glycerol. Mixed with an equal volume of Ad-βgal virus and incubated for 15 minutes. Administered 100 μl of the mixture intravesically and retained in the bladder for 30 minutes.
# Benzyl Alcohol procedure: Washed 2 times with 100 μl each. Retained the 3rd wash for 15 minutes and then gave one additional wash. Performed 3 times PBS wash prior to virus instillation.
# Performed 3 times PBS wash prior to virus instillation.
# Polidocanol procedure: Washed 2 times with 100 μl each. Retained the 3rd wash for 5 min and then gave one additional wash. Performed 3 times PBS wash prior to virus instillation.
# DC-Cho procedure: Washed 2 times with 100 μl each. Retained the 3rd wash for 5 min and then gave one additional wash. Performed 3 times PBS wash prior to virus instillation.
# 0.4% HPMC 2910 procedure: No pretreatment. An equal volume of the virus was mixed with 0.8% solution of HPMC2910 and the mixture was instilled into the bladder for 30 minutes.
# 100 mg/ml Poly-Lysine procedure: No pretreatment. An equal volume of the virus was mixed with 100 mg/ml solution of Poly-Lysine and the mixture was instilled into the bladder for 30 minutes.
# 0.4% polyvinyl alcohol (PVA) procedure: No pretreatment. An equal volume of the virus was mixed with 0.8% solution of PVA and the mixture was instilled into the bladder for 30 minutes.
# n-dodecyl-β-D glucopyranoside procedure: Washed 2 times with 100 μl each. Retained the 3rd wash for 5 min and then gave one additional wash. Performed 3 times PBS wash prior to virus instillation.
# 0.4% PVP procedure: No pretreatment. An equal volume of the virus was mixed with 0.8% solution of PVP and the mixture was instilled into the bladder for 30 min.
# 0.1% cholesterol-cyclodextrin reagent procedure: No pretreatment. An equal volume of the virus was mixed with 0.2% solution of Cholesterol-Cyclodextrin and the mixture was instilled into the bladder for 30 minutes.
# n-dodecyl-β-D-maltoside procedure: Washed 2 times with 100 μl each. Retained the 3rd wash for 5 min and then gave one additional wash. Performed 3 times PBS wash prior to virus instillation.
# Sodium salt of dodecyl benzenesulfonic acid procedure: Washed 2 times with 100 μl each. Retained the 3rd wash for 5 min and then gave one additional wash. Performed 3 times PBS wash prior to virus instillation.
# 0.1% sodium dodecyl sulphate procedure: Wash 2 times with 100 μl each. Retained the 3rd wash for 5 min and then gave one additional wash. Performed 3 times PBS wash prior to virus instillation.
# 0.1% Tween 20 procedure: Washed 2 times with 100 μl each. Retained the 3rd wash for 5 min and then gave one additional wash. Performed 3 times PBS wash prior to virus instillation.
# 0.1% Triton® X-100 procedure: Washed 2 times with 100 μl each. Retained the 3rd wash for 5 min and then gave one additional wash. Perform 3 times PBS wash prior to virus instillation.
# 0.1% Forlan C-24 procedure: Washed 2 times with 100 μl each. Retained the 3rd wash for 5 min and then gave one additional wash. Performed 3 times PBS wash prior to virus instillation.
# 0.1% decyl-b-D-maltoside procedure: Washed 2 times with 100 μl each. Retained the 3rd wash for 5 min and then gave one additional wash. Performed 3 times PBS wash prior to virus instillation.
# 0.1% 6-cyclohexylhexyl-b-D-maltoside procedure: Washed 2 times with 100 μl each. […]
# bladder epithelium [2] = assay: Transduction efficacy of exemplary pretreatment agents (summary Table 7); assay type: in vivo, mouse; conditions: pretreatment agent
# mice bladder urothelium = assay: DDM from two suppliers as pretreatment agent prior to adenovirus infection; assay type: in vivo, Balb/c Mouse; conditions: two different lots of DDM, pretreatment QQ5 minQ, 1×10^10 vp/dose for 15 min
# Source text: Rat bladders infected with 4×10^10 vp adenovirus achieved >90% Ad-βgal gene expression levels whereas rat bladders infected with 4×10^9 vp adenovirus had Ad-βgal gene expression levels range from 30% to 50%. […] Efficacy of Dodecyl-β-D-Maltoside as a Pretreatment Agent Prior to Adenovirus Infection of Mice Bladder Urothelium • Species: Female Balb/c Mouse (Taconic Laboratory)—2/group • Study Design: To test DDM from two different suppliers as pretreatment agents to enhance the adenovirus infection of mice bladder urothelium in a large group of animals. • Dose/Route:
# In each case, >90% Ad-βgal expression was achieved. Therefore, DDM from either manufacturer is a good candidate for a chemical enhancer for adenovirus infection in mice bladder. Efficacy of Dodecyl-β-D-Maltoside as Chemical Enhancer Prior to Adenovirus Infection of SW780+ Luc Orthotopic Bladder Tumor Model in Mice • Species: Female NCR nu/nu Mouse (Taconic Laboratory)-2/group • Study Design: To show DDM pretreatments enhance Ad.Lac Z infectivity in mice bladder urothelium. To further confirm the enhancer effect on orthotopic tumors, two mice bearing orthotopic SW780 bladder tumors were pretreated with or without DDM (QQ5 minQ) followed by 15 min Ad.Lac Z instillation. The Ad.Lac Z gene expression levels were checked in these tumor cells 4 days post Ad.Lac Z infection. • Dose/Route: […]
smiles,measurement,setting,value
"CCCCCCCCCCCCO[C@@H]1O[C@H](CO)[C@@H](O[C@H]2O[C@H](CO)[C@@H](O)[C@H](O)[C@H]2O)[C@H](O)[C@H]1O [n-dodecyl β-D-maltoside, n-dodecyl-β-D-maltoside]",effect on adenovirus (in words),adenovirus (Ad-LacZ),no adverse effects on adenovirus
same,Average pfu/mL,"adenovirus; 25° C., 2 hours",1.32E+10 pfu/mL
same,Ratio vp/pfu,"adenovirus; 25° C., 2 hours",16 vp/pfu
same,Average pfu/mL,"adenovirus; 37° C., 1 hour",1.36E+10 pfu/mL
same,Ratio vp/pfu,"adenovirus; 37° C., 1 hour",16 vp/pfu
same,compatibility with the adenovirus (in words),adenovirus; under the experimental conditions of Table 5,compatible with the adenovirus
same,response class (level of transduction),bladder epithelium [1],strongest response
same,transduction of the urothelium,bladder epithelium [1]; 0.02% pre-treatment for 5 minutes,50-80%
same,transduction of the urothelium,bladder epithelium [1]; 0.05% pre-treatment for 5 minutes,> 90%
same,transduction of the urothelium,bladder epithelium [1]; 0.2% pre-treatment for 5 minutes,> 90%
same,effect on transduction (in words),bladder epithelium [1]; bladder pretreatment followed by Ad-LacZ,increased transduction significantly
same,Transduction Efficacy,bladder epithelium [2],++++ (“++++” means >75% transduction efficacy)
same,Ad-βgal expression,mice bladder urothelium,> 90%
